pIC50: −log10 of the molar value. Where two headings read alike, the source gives them in different places.

Our source for the IC50 values is patent publication US11420969B2 (Exonate Limited, priority 2017, dated 2022).

One assay deals with SRPK1 (Homo sapiens, UniProt Q96SB4). In words: In vitro SRPK1 assay (Kinase-Glo). The assay is classed as biochemical.
The target in another assay is T1, CYP1A2 (Homo sapiens, UniProt P05177).
T1 construct: from tissue; host or cells: human liver microsomes
T1 sequence (P05177 1-516): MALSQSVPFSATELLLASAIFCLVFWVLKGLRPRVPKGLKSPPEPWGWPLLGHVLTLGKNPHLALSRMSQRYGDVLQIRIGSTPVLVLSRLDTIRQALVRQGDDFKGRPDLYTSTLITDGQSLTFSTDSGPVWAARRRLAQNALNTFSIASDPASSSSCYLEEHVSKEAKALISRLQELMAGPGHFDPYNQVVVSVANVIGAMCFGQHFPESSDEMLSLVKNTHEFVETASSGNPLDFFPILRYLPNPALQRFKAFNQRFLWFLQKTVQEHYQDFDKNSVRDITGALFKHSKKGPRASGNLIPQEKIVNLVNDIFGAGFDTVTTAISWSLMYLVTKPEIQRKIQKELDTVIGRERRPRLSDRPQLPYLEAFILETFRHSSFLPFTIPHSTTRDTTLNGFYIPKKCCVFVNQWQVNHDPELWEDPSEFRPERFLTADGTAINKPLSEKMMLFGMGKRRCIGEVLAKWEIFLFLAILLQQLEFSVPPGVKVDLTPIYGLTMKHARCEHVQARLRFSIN
Nature of the assay: CYP inhibition assay, human liver microsomes, substrate tacrine. In kind it is in vitro ADME. To be noted: human liver microsomes, 10 min incubation, LC-MS/MS; read-out: CYP Inhibition Activity (IC50/nM) CYP1A2. The procedure: (§1) 2 μL of test compound/Positive Inhibitor working solutions is then added to the reaction plate (2 μL/well). For control, 2 μL of Acetonitrile (ACN) containing DMSO (without inhibitor) is added to the reaction plate. 20 μL of substrate pool is added to all the wells of the reaction plate. The samples are mixed in a vortexer and pre-incubated at 37° C. for 20 min. The NADPH solution is pre-warmed at 37° C. for 5 min. 20 μL of pre-warmed NADPH solution is added to the reaction plate and then incubated at 37° C. for 10 min. The reaction is terminated by adding cold ACN (200 μL/well) to the reaction mixture and centrifuging at 4,000 rpm for 20 minutes. After centrifugation, supernatant is separated and analyzed by LC-MS/MS.
(§2) % inhibition and IC50 are calculated using Graphpad Prism software.

Another assay addresses T2, CYP2D6 (Homo sapiens, UniProt P10635).
T2 construct: from tissue; host or cells: human liver microsomes
Nature of the assay: biochemical. The assay is classed as in vitro ADME. The procedure: 158 μL of Human Liver Microsomes working stock solution is added to a reaction plate (0.253 mg/mL, 158 μL/well). 2 μL of test compound/Positive Inhibitor working solutions is then added to the reaction plate (2 μL/well). For control, 2 μL of Acetonitrile (ACN) containing DMSO (without inhibitor) is added to the reaction plate. 20 μL of substrate pool is added to all the wells of the reaction plate. The samples are mixed in a vortexer and pre-incubated at 37° C. for 20 min. The NADPH solution is pre-warmed at 37° C. for 5 min. 20 μL of pre-warmed NADPH solution is added to the reaction plate and then incubated at 37° C. for 10 min. The reaction is terminated by adding cold ACN (200 μL/well) to the reaction mixture and centrifuging at 4,000 rpm for 20 minutes. After centrifugation, supernatant is separated and analyzed by LC-MS/MS.
as §2

Another assay deals with T3, CYP3A4 (Homo sapiens, UniProt P08684).
T3 construct: from tissue; host or cells: human liver microsomes
T3 sequence (P08684 whole entry): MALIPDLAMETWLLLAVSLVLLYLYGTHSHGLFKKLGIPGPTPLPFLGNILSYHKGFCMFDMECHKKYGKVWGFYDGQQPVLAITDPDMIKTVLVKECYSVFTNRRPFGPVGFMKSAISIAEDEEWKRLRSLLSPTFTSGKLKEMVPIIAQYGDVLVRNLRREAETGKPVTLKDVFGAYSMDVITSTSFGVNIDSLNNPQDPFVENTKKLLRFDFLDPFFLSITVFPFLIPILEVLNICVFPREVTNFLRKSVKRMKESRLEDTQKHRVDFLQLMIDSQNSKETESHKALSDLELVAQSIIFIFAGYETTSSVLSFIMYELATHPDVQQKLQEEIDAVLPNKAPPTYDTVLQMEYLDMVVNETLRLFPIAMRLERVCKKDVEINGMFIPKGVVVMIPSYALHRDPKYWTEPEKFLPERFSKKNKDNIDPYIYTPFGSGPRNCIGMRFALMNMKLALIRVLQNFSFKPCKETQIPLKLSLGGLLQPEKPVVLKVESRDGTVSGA
Nature of the assay: CYP inhibition assay, human liver microsomes, substrate midazolam. In kind it is in vitro ADME. The settings on record: human liver microsomes, 10 min incubation, LC-MS/MS; read-out: CYP Inhibition Activity (IC50/nM) CYP3A4. The method, then: as §1, §2

A further assay deals with T4, CYP2C19 (Homo sapiens, UniProt P33261).
T4 construct: from tissue; host or cells: human liver microsomes
T4 sequence (P33261 whole entry): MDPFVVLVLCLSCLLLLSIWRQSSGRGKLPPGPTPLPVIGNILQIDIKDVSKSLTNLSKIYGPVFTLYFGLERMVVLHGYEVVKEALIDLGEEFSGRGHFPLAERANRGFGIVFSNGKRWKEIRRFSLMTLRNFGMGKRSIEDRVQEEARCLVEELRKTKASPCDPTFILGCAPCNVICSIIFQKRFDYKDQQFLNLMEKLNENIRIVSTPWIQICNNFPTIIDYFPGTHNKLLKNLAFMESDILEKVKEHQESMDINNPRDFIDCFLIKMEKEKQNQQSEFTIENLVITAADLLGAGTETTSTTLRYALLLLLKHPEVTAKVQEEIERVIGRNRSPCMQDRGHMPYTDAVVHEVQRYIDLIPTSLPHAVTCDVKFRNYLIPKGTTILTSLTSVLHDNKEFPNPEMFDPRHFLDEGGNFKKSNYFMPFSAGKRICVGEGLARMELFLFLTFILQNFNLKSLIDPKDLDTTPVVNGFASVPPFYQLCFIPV
In words: CYP inhibition assay, human liver microsomes, substrate S-mephenytoin. The settings on record: human liver microsomes, 10 min incubation, LC-MS/MS; read-out: CYP Inhibition Activity (IC50/nM) CYP2C19. The assay is classed as in vitro ADME. The method, then: as §1, §2

A further assay concerns the target T5, CYP2C9 (Homo sapiens, UniProt P11712).
T5 construct: from tissue; host or cells: human liver microsomes
Nature of the assay: CYP inhibition assay, human liver microsomes, substrate diclofenac. The assay is classed as in vitro ADME. To be noted: for IC50: human liver microsomes, 10 min incubation, LC-MS/MS, read-out: CYP Inhibition Activity (IC50/nM) CYP2C9. The method, then:
as §1, §2

T2 sequence (P10635 whole entry): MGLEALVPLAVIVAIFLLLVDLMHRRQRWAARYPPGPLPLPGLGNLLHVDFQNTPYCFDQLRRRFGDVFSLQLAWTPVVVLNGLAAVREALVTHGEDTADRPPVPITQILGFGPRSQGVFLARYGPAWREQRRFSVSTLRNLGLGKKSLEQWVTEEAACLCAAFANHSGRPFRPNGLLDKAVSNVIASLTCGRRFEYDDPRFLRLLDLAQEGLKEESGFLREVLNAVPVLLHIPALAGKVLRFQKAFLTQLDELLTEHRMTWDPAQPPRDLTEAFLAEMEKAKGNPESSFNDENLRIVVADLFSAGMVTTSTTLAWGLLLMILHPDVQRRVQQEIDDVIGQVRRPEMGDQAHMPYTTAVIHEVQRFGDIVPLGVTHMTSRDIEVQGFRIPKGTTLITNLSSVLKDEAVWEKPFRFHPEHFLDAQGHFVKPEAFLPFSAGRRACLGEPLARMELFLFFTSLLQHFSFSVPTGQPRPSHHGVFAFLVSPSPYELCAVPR
T5 sequence (P11712 whole entry): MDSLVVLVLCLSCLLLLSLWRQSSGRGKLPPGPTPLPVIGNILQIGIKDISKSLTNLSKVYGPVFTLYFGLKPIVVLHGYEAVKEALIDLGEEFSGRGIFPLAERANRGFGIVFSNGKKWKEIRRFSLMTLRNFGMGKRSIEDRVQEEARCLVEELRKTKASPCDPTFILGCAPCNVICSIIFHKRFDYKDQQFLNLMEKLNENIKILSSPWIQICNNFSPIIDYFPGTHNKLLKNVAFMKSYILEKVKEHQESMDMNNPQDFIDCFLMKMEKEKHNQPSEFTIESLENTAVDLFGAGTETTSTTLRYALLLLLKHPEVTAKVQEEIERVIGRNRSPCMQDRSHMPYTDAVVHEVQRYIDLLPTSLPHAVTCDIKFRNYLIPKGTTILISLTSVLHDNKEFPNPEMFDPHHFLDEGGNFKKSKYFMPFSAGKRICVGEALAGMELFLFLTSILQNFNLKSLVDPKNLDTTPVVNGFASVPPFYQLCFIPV
Sequence of SRPK1 (Q96SB4 whole entry, species assumed): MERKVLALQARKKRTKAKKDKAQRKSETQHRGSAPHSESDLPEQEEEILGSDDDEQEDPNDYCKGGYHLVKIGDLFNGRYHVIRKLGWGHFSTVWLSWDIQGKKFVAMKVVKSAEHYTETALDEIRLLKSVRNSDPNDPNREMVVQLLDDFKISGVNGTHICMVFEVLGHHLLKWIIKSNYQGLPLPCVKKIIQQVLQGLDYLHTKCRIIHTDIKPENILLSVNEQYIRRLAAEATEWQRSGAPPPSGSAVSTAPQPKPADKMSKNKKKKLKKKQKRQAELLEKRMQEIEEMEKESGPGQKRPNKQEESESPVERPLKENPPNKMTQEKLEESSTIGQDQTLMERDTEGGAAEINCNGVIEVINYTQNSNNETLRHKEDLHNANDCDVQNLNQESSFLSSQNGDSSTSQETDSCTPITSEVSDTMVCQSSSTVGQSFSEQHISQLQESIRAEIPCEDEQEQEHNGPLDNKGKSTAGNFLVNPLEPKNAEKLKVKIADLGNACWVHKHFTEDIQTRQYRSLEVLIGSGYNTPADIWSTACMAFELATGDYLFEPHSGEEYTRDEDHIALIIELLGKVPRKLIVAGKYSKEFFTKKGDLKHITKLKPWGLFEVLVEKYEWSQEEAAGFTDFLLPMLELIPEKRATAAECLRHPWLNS

On to `CN(C)C(=O)C1(C)CCN(c2ccc(Cl)cc2NC(=O)c2ccc(C3CCOCC3)o2)CC1` [Example 84, 1-(4-chloro-2-(5-(tetrahydro-2H-pyran-4-yl)furan-2-carboxamido)phenyl)-N,N,4-trimethyl-piperidine-4-carboxamide], for which the IC50 was 23 nM against SRPK1; more than 30000 nM at CYP1A2; 2200 nM at CYP3A4; 8000 nM on CYP2C19; 600 nM on CYP2C9. The pIC50 at CYP2D6 is 4.91.

Take `CC1(C(=O)N2CCCCC2)CCN(c2ccc(C(F)(F)F)cc2NC(=O)c2ccc(C3CCOCC3)o2)CC1` [Example 89, N-(2-(4-methyl-4-(piperidine-1-carbonyl)-piperidin-1-yl)-5-(trifluoromethyl)phenyl)-5-(tetrahydro-2H-pyran-4-yl)furan-2-carboxamide]: the IC50 on SRPK1 is 14 nM; on CYP1A2, more than 30000 nM; at CYP3A4 it was 2800 nM; on CYP2C19, 14100 nM; at CYP2C9, 2500 nM. On CYP2D6, this molecule showed a negative-log IC50 (pIC50) of 4.72.

As to `CN(C)CC1(C)CCN(c2ccc(C3CC3)cc2NC(=O)c2ccc(C3CCOCC3)o2)CC1` [Example 93, N-(5-cyclopropyl-2-(4-((dimethylamino)methyl)-4-methylpiperidin-1-yl)phenyl)-5-(tetrahydro-2H-pyran-4-yl)furan-2-carboxamide], the IC50 against SRPK1 is 28 nM; at CYP1A2 it was more than 30000 nM; at CYP3A4, 29500 nM; at CYP2C19, 25700 nM; on CYP2C9 it was 13700 nM. Also, at CYP2D6, the negative-log IC50 (pIC50) was 4.61.

On to `COc1ccc(N2CCC(C)(O)CC2)c(NC(=O)c2ccc(-c3ccncc3)o2)c1` [Example 9, N-(2-(4-hydroxy-4-methylpiperidin-1-yl)-5-methoxyphenyl)-5-(pyridin-4-yl)furan-2-carboxamide], for which the IC50 worked out at 4.4 nM against SRPK1; 4990 nM at CYP1A2; 360 nM on CYP3A4; 890 nM at CYP2C19; 350 nM on CYP2C9. Also, the negative logarithm of the IC50 (pIC50) against CYP2D6 is 5.29.

For the molecule `O=C(Nc1cc(C(F)(F)F)ccc1N1CCC2(CCCC2)CC1)c1ccc(C2CCOCC2)o1` [Example 98, N-(2-(8-azaspirol4.51decan-8-yl)-5-(trifluoromethyl)phenyl)-5-(tetrahydro-2H-pyran-4-yl)furan-2-carboxamide], the IC50 against SRPK1 was 7.5 nM; at CYP1A2 it was more than 30000 nM; on CYP2D6 (human liver microsomes, 10 min incubation, LC-MS/MS, read-out: CYP Inhibition Activity (IC50/nM) CYP2D6), more than 30000 nM; on CYP3A4, more than 30000 nM; on CYP2C19 it was more than 30000 nM. For the same molecule, at CYP2C9, the negative logarithm of the IC50 (pIC50) was 4.73.

For `CN1CCC2(CCN(c3ccc(C(F)(F)F)cc3NC(=O)c3ccc(C4CCOCC4)o3)CC2)C1=O` [Example 100, N-(2-(2-methyl-1-oxo-2,8-diazaspiro[4.5]decan-8-yl)-5-(trifluoromethyl)phenyl)-5-(tetrahydro-2H-pyran-4-yl)furan-2-carboxamide], the IC50 is 2.6 nM against SRPK1; more than 30000 nM on CYP1A2; 2700 nM on CYP3A4; 3200 nM on CYP2C19; 7300 nM on CYP2C9. This molecule also showed a pIC50 against CYP2D6 of 4.86.

In the case of `CC1(CN2CCCC2)CCN(c2ccc(C(F)(F)F)cc2NC(=O)c2ccc(C3CCOCC3)o2)CC1` [Example 95, N-(2-(4-methyl-4-(pyrrolidin-1-ylmethyl)piperidin-1-yl)-5-(trifluoromethyl)phenyl)-5-(tetrahydro-2H-pyran-4-yl)furan-2-carboxamide], the IC50 on SRPK1 is 24 nM; on CYP1A2, more than 30000 nM; on CYP3A4, 7300 nM; at CYP2C19, more than 30000 nM; on CYP2C9, 10100 nM. At CYP2D6, the pIC50 is 6.40.

Take `C[C@@]1(O)CCN(c2ccc(C(F)(F)F)cc2NC(=O)c2ccc(-c3ccncc3)o2)C1` [Example 52, (R)-N-(2-(3-hydroxy-3-methylpyrrolidin-1-yl)-5-(trifluoromethyl)phenyl)-5-(pyridin-4-yl)furan-2-carboxamide]: the IC50 was determined as 216 nM on SRPK1; 4360 nM on CYP1A2; 1190 nM at CYP3A4; 540 nM on CYP2C19; 200 nM at CYP2C9. At CYP2D6, this molecule had a pIC50 of 6.82.

Consider `CC1(O)CCN(c2ccc(C(F)(F)F)cc2NC(=O)c2ccccn2)CC1` [Example 1, N-(2-(4-hydroxy-4-methylpiperidin-1-yl)-5-(trifluoromethyl)phenyl)picolinamide], for which the IC50 on SRPK1 turned out to be 9 nM; on CYP1A2 it was 15300 nM; on CYP3A4, 20900 nM; at CYP2C19 it was 16000 nM; at CYP2C9, 17800 nM. The molecule also gave a pIC50 at CYP2D6 of less than 4.52.

As to `CC1(C(=O)O)CCN(c2ccc(C(F)(F)F)cc2NC(=O)c2ccc(C3CCOCC3)o2)CC1` [Example 27, 4-methyl-1-(2-(5-(tetrahydro-2H-pyran-4-yl)furan-2-carboxamido)-4-(trifluoromethyl)phenyl)-piperidine-4-carboxylic acid], the IC50 at SRPK1 was 3.6 nM; on CYP1A2, more than 30000 nM; at CYP3A4, more than 30000 nM; on CYP2C19 it was more than 30000 nM; at CYP2C9 it was 12600 nM. The pIC50 at CYP2D6 is less than 4.52.

Take `CC1(C)CCN(c2ccc(C(F)(F)F)cc2NC(=O)c2ccc(-c3ccncc3)o2)CC1` [Example 28, N-(2-(4,4-dimethylpiperidin-1-yl)-5-(trifluoromethyl)phenyl)-5-(pyridin-4-yl)furan-2-carboxamide]: the IC50 against SRPK1 was 15 nM; on CYP1A2 it was more than 30000 nM; on CYP3A4, more than 30000 nM; on CYP2C19, more than 30000 nM; on CYP2C9, more than 30000 nM. On CYP2D6, the negative-log IC50 (pIC50) is less than 4.52.

With `CC1(O)CCN(c2ccc(Cl)cc2NC(=O)c2ccc(C3CCOCC3)o2)C1` (racemic) [Example 60, N-(5-chloro-2-(3-hydroxy-3-methylpyrrolidin-1-yl)phenyl)-5-(tetrahydro-2H-pyran-4-yl)furan-2-carboxamide], the IC50 against SRPK1 was 71 nM; on CYP1A2, more than 30000 nM; at CYP3A4, more than 30000 nM; on CYP2C19, 22600 nM; on CYP2C9, more than 30000 nM. The molecule also showed a pIC50 at CYP2D6 of less than 4.52.

With `CC1(O)CCN(c2ccc(C3CC3)cc2NC(=O)c2ccccn2)CC1` [Example 3, N-(5-cyclopropyl-2-(4-hydroxy-4-methylpiperidin-1-yl)phenyl)-picolinamide], the IC50 is 19 nM on SRPK1; 14400 nM at CYP1A2; 17100 nM at CYP3A4; 7160 nM at CYP2C19; 12000 nM at CYP2C9. This molecule gave a negative-log IC50 (pIC50) at CYP2D6 of less than 4.52.

`CC1(O)CCN(c2ccc(Cl)cc2NC(=O)c2ccccn2)CC1` [Example 2, N-(5-chloro-2-(4-hydroxy-4-methylpiperidin-1-yl)-phenyl)picolinamide]: the IC50 worked out at 25 nM against SRPK1; 5890 nM on CYP1A2; 10000 nM on CYP3A4; 18200 nM at CYP2C19; 13500 nM on CYP2C9. Besides, on CYP2D6, the pIC50 was less than 4.52.

Consider `CC1(O)CCN(c2ccc(C(F)(F)F)cc2NC(=O)c2ccc(-c3ccncc3)o2)C1` (racemic) [Example 55, N-(2-(3-hydroxy-3-methylpyrrolidin-1-yl)-5-(trifluoromethyl)-phenyl)-5-(pyridin-4-yl)furan-2-carboxamide], for which the IC50 was 26 nM against SRPK1; 13000 nM at CYP1A2; more than 30000 nM at CYP3A4; 22900 nM on CYP2C19; more than 30000 nM on CYP2C9. Further, the pIC50 against CYP2D6 is less than 4.52.
